The text below walks through data of patent US20040034082A1, “Utilization of pyrazoline derivatives in the preparation of a medicament for the prevention and/or treatment of proliferative cell diseases” (priority 2001, published 2004).

The structures appear in SMILES notation.

`CS(=O)(=O)c1ccc(C2CC(C(F)(F)F)=NN2c2ccccc2)cc1` (stereo not drawn) [Example 66] came in with a melting point of 114 to 115 °C.
For the compound `Cc1ccc(C2CC(C(N)=O)=NN2c2ccc(S(N)(=O)=O)cc2)cc1` (stereo not drawn) [Example 41], the melting point fell in the range of 210 to 215 °C.
As for `Cc1ccccc1C1CC(C(F)(F)F)=NN1c1ccc(S(N)(=O)=O)cc1` (stereo not drawn) [Example 14], the figure is 124 to 126 °C.
As for `Cc1ccc(N2N=C(C(F)(F)F)CC2c2ccc(S(C)(=O)=O)cc2)cc1` (stereo not drawn) [Example 4], the figure is 140 to 143 °C; as for `Cc1ccc(C2CC(C(F)(F)F)=NN2c2ccc(S(N)(=O)=O)cc2)c(C)c1` (stereo not drawn) [Example 24], 158 to 160 °C; as for `NS(=O)(=O)c1ccc(N2N=C(C(F)(F)F)CC2c2ccc(Cl)cc2F)cc1` (stereo not drawn) [Example 61], 180 to 185 °C.
Take `Cc1ccc(C2CC(C(N)=O)=NN2c2ccc(S(C)(=O)=O)cc2)cc1` (stereo not drawn) [Example 42]: the melting point was in the range of 128 to 132 °C.
With `CS(=O)(=O)c1ccc(N2N=C(C(F)(F)F)CC2c2ccccc2F)cc1` (stereo not drawn) [Example 17] the figure was 117 to 121 °C.
With `Cc1cc(Cl)ccc1N1N=C(C(F)(F)F)CC1c1ccc(S(C)(=O)=O)cc1` (stereo not drawn) [Example 68] the figure was 104 to 108 °C; with `NS(=O)(=O)c1ccc(C2CC(C(F)(F)F)=NN2c2ccc(F)cc2)cc1` (stereo not drawn) [Example 76], 138 to 140 °C.
As for `NS(=O)(=O)c1ccc(N2N=C(C(F)(F)F)CC2c2ccc(F)cc2C(F)(F)F)cc1` (stereo not drawn) [Example 58], the figure is 174 to 177 °C; as for `Cc1ccc(C2CC(C#N)=NN2c2ccc(S(C)(=O)=O)cc2)cc1` (stereo not drawn) [Example 43], 162 to 164 °C.
Compound `CC1=NN(c2ccc(S(N)(=O)=O)cc2)C(c2ccc(C(F)(F)F)cc2)C1` (stereo not drawn) [Example 30] yielded a melting point of 190 to 194 °C.
As for `CS(=O)(=O)c1ccc(N2N=C(C(F)(F)F)CC2c2ccc(Cl)cc2Cl)cc1` (stereo not drawn) [Example 12], the figure is 198 to 200 °C.
As for `Cc1c(F)cccc1C1CC(C(F)(F)F)=NN1c1ccc(S(N)(=O)=O)cc1` (stereo not drawn) [Example 55], the figure is 193 to 195 °C.
`NS(=O)(=O)c1ccc(N2N=CCC2c2ccccc2)cc1` (stereo not drawn) [Example 31] had a melting point of 206 to 208 °C.
As for `Cc1ccc(C2CC(C(=O)O)=NN2c2ccc(S(N)(=O)=O)cc2)cc1` (stereo not drawn) [Example 34], the figure is 172 to 176 °C; as for `COc1ccc(C2CC(C(F)(F)F)=NN2c2ccc(S(N)(=O)=O)cc2)cc1` (stereo not drawn) [Example 20], 125 to 128 °C.
With `NS(=O)(=O)c1ccc(N2N=C(C(F)(F)F)CC2c2ccc(F)cc2Cl)cc1` (stereo not drawn) [Example 52] the figure was 167 to 169 °C; with `CC1=NN(c2ccc(S(C)(=O)=O)cc2)C(c2ccc(C)cc2)C1` (stereo not drawn) [Example 29], 113 to 117 °C.
With `Cc1cccc(N2N=C(C(F)(F)F)CC2c2ccc(S(C)(=O)=O)cc2)c1` (stereo not drawn) [Example 70] the figure was 114 to 116 °C; with `CC1=NN(c2ccc(S(C)(=O)=O)cc2)C(c2ccc(F)cc2)C1` (stereo not drawn) [Example 27], 120 to 123 °C.
The compound `CC1=NN(c2ccc(S(C)(=O)=O)cc2)C(c2ccc(C(F)(F)F)cc2)C1` (stereo not drawn) [Example 33] registered a melting point of 136 to 138 °C.
With `NS(=O)(=O)c1ccc(N2N=C(C(F)(F)F)CC2c2ccc(Cl)cc2Cl)cc1` (stereo not drawn) [Example 13] the figure was 143 to 145 °C.
With `NS(=O)(=O)c1ccc(N2N=C(C(F)(F)F)CC2c2cccc(F)c2)cc1` (stereo not drawn) [Example 18] the figure was 132 to 133 °C; with `COc1ccc(C2CC(C(F)(F)F)=NN2c2ccc(S(N)(=O)=O)cc2)c(F)c1` (stereo not drawn) [Example 47], 157 to 159 °C.
With `COC(=O)C1=NN(c2ccc(S(N)(=O)=O)cc2)C(c2ccc(C)cc2)C1` (stereo not drawn) [Example 37] the figure was 192 to 197 °C; with `Cc1ccc(N2N=C(C(F)(F)F)CC2c2ccc(S(C)(=O)=O)cc2)c(C)c1` (stereo not drawn) [Example 71], 132 to 133 °C; with `NS(=O)(=O)c1ccc(N2N=C(C(F)(F)F)CC2c2ccccc2)cc1` (stereo not drawn) [Example 5], 156 to 157 °C.
Take `COc1ccc(C2CC(C(F)(F)F)=NN2c2ccc(S(N)(=O)=O)cc2)c(OC)c1` (stereo not drawn) [Example 48]: the melting point fell in the range of 121 to 126 °C.
For `CS(=O)(=O)c1ccc(N2N=CCC2c2ccccc2)cc1` (stereo not drawn) [Example 32], the melting point fell in the range of 197 to 202 °C.
As for `NS(=O)(=O)c1ccc(N2N=C(C(F)(F)F)CC2c2ccc(F)c(F)c2)cc1` (stereo not drawn) [Example 11], the figure is 153 to 155 °C; as for `CS(=O)(=O)c1ccc(C2CC(C(F)(F)F)=NN2c2ccccc2F)cc1` (stereo not drawn) [Example 67], 98 to 99 °C; as for `CS(=O)(=O)c1ccc(N2N=C(C(F)(F)F)CC2c2ccccc2)cc1` (stereo not drawn) [Example 6], 137 to 140 °C.
As for `Cc1ccc(C2CC(C(F)F)=NN2c2ccc(S(N)(=O)=O)cc2)c(C)c1` (stereo not drawn) [Example 50], the figure is 181 to 183 °C; as for `Cc1ccc(C2CC(C(F)(F)F)=NN2c2ccc(S(C)(=O)=O)cc2)cc1` (stereo not drawn) [Example 7], 115 to 119 °C.
As for `CS(=O)(=O)c1ccc(C2CC(C(F)(F)F)=NN2c2ccc(Cl)cc2)cc1` (stereo not drawn) [Example 65], the figure is 117 to 121 °C; as for `Cc1cccc(C2CC(C(F)(F)F)=NN2c2ccc(S(N)(=O)=O)cc2)c1` (stereo not drawn) [Example 15], 125 to 128 °C; as for `NS(=O)(=O)c1ccc(N2N=C(C(F)(F)F)CC2c2ccc(F)cc2)cc1` (stereo not drawn) [Example 8], 154 to 156 °C.
`CC1(c2ccccc2)CC(C(F)(F)F)=NN1c1ccc(S(N)(=O)=O)cc1` (stereo not drawn) [Example 2] gave a melting point of 60 to 66 °C.
With `COc1cc(F)ccc1C1CC(C(F)(F)F)=NN1c1ccc(S(N)(=O)=O)cc1` (stereo not drawn) [Example 49], the melting point was in the range of 179 to 182 °C.
Regarding `Cc1ccc(C2CC(C(=O)O)=NN2c2ccc(S(C)(=O)=O)cc2)cc1` (stereo not drawn) [Example 36], the melting point fell in the range of 202 to 205 °C.
As for `COc1ccc(C2CC(C(F)(F)F)=NN2c2ccc(S(N)(=O)=O)cc2)cc1F` (stereo not drawn) [Example 46], the figure is 108 to 114 °C.
Consider `NS(=O)(=O)c1ccc(N2N=C(C(F)(F)F)CC2c2ccc(F)c(Cl)c2)cc1` (stereo not drawn) [Example 21], for which the melting point lay within 171 to 173 °C.
As for `NS(=O)(=O)c1ccc(N2N=C(C(=O)O)CC2c2ccccc2)cc1` (stereo not drawn) [Example 35], the figure is 157 to 164 °C; as for `NS(=O)(=O)c1ccc(N2N=C(C(F)(F)F)CC2c2ccccc2Cl)cc1` (stereo not drawn) [Example 60], 157 to 159 °C.
With `NS(=O)(=O)c1ccc(N2N=C(C(F)(F)F)CC2c2ccccc2F)cc1` (stereo not drawn) [Example 16] the figure was 166 to 168 °C; with `Cc1ccc(C2CC(C(F)(F)F)=NN2c2ccc(S(N)(=O)=O)cc2)c(F)c1` (stereo not drawn) [Example 63], 166 to 167 °C; with `CS(=O)(=O)c1ccc(C2CC=NN2c2ccc(F)cc2)cc1` (stereo not drawn) [Example 78], 155 to 160 °C.
As for `CS(=O)(=O)c1ccc(N2N=C(C(F)(F)F)CC2c2ccc(F)c(F)c2)cc1` (stereo not drawn) [Example 25], the figure is 132 to 135 °C; as for `NS(=O)(=O)c1ccc(N2N=C(C(F)(F)F)CC2c2ccc(F)c(F)c2F)cc1` (stereo not drawn) [Example 51], 159 to 161 °C.

The melting point is the temperature of the solid-liquid transition.
